These results are taken from US9206130B2, “Quinoline derivatives as AXL kinase inhibitors” (Max-Planck-Gesellschaft zur Förderung der Wissenschaften …, priority 2008, dated 2015).

Series [1] has as its target T1, wild type AXL (wtAXL) receptor tyrosine kinase (Homo sapiens, UniProt P30530).
T1 construct: WtAXL cDNA was cloned into vector pLXSN(ESK) and transfected into Phoenix E packaging cells; expressed in transfected cells; host or cells: NIH3T3 N7 mouse fibroblasts, retrovirally infected (clone 22)
T1 sequence (P30530 26-894): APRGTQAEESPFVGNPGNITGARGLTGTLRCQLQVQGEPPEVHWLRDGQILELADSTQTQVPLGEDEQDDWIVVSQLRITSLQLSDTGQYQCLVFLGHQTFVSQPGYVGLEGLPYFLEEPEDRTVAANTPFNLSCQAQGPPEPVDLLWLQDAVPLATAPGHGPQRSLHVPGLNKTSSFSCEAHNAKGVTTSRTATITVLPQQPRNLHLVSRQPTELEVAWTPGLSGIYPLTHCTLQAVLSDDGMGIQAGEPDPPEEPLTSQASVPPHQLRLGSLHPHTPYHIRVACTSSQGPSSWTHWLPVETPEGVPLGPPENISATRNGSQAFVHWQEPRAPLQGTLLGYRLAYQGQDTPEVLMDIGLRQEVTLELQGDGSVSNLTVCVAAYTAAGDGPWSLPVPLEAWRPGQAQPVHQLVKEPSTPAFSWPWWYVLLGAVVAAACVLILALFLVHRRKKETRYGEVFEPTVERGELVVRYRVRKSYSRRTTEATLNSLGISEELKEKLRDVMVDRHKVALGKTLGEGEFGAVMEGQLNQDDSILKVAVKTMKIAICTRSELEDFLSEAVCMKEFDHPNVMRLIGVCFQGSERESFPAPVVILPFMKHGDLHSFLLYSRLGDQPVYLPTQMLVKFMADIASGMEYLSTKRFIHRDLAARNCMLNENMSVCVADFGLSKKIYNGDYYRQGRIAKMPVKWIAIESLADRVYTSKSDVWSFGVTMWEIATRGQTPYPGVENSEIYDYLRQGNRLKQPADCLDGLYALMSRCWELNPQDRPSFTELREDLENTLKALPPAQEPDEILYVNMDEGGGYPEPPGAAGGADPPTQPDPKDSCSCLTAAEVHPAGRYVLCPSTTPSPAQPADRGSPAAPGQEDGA
As to the kind of experiment: NIH-3T3-AXL cellular tyrosine kinase assay (inhibition of AXL phosphorylation). In kind it is cell-based. Particulars: AXL phosphorylation in NIH-3T3-AXL (clone 22) cells, serum-depleted, 2 h with compound, immunoprecipitation / anti-phosphotyrosine blot. An outline of the steps:
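Compound inhibition of AXL autophosphorylation was read by 4G10 immunoblot after anti-AXL immunoprecipitation from lysates. Cells: NIH3T3 lines stably carrying retroviral wild-type human AXL, treated 2 h with compound dilution series.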

With `COc1cc2nccc(Oc3ccc(NS(=O)(=O)c4ccc(Br)c(Cl)c4)c(F)c3)c2cc1OC` [Example A60, 4-Bromo-3-chloro-N-[4-(6,7-dimethoxy-quinolin-4-yloxy)-2-fluoro-phenyl]-benzenesulfonamide], the melting point was 231 to 232 °C. Besides, the IC50 in series [1] is 0.8 µM.

As to `COc1cc2nccc(Oc3ccc(NS(=O)(=O)c4cccc(-c5ncccn5)c4)cc3C)c2cc1OC` [Example A132, N-[4-(6,7-Dimethoxy-quinolin-4-yloxy)-3-methyl-phenyl]-3-pyrimidin-2-yl-benzenesulfonamide], the melting point lay within 188 to 190 °C. In addition, in series [1], the IC50 was above 10 µM.

In turn, `COc1cc2nccc(Oc3ccc(NS(=O)(=O)c4ccc(F)c(F)c4)c(F)c3)c2cc1OC` [Example A3, N-[4-(6,7-Dimethoxy-quinolin-4-yloxy)-2-fluoro-phenyl]-3,4-difluoro-benzenesulfonamide] showed a melting point of 217 to 219 °C. In series [1], the IC50 came out at 3.4 µM.

On to `COc1cc2nccc(Oc3ccc(NS(=O)(=O)c4cc(Cl)cc(Cl)c4OC)cc3C)c2cc1OC` [Example A127, 3,5-Dichloro-N-[4-(6,7-dimethoxy-quinolin-4-yloxy)-3-methyl-phenyl]-2-methoxy-benzenesulfonamide], for which the melting point lay in the range of 206 to 208 °C. In addition, the IC50 in series [1] is above 3 µM.

For the molecule `COc1cc2c(Oc3ccc(NS(=O)(=O)c4ccc(Cl)cc4F)cc3F)ccnc2cc1OCCN1CCOCC1` [Example D12, 4-Chloro-2-fluoro-N-{3-fluoro-4-[6-methoxy-7-(2-morpholin-4-yl-ethoxy)-quinolin-4-yloxy]-phenyl}-benzenesulfonamide], the melting point fell in the range of 212 to 214 °C. Besides, the IC50 in series [1] was 0.3 µM.

`Cc1cc(Oc2ccc(NS(=O)(=O)c3cc(Cl)cc(Cl)c3)c(F)c2)c2cccc(C(F)(F)F)c2n1` [Example C01, 3,5-Dichloro-N-[2-fluoro-4-(2-methyl-8-trifluoromethyl-quinolin-4-yloxy)-phenyl]-benzenesulfonamide] yielded a melting point of 181 to 183 °C. In addition, the IC50 in series [1] was above 10 µM.

The molecule `COc1cc2nccc(Oc3ccc(NS(=O)(=O)c4ccccc4Cl)c(F)c3)c2cc1OC` [Example A54, 2-Chloro-N-[4-(6,7-dimethoxy-quinolin-4-yloxy)-2-fluoro-phenyl]-benzenesulfonamide] returned a melting point of 232 to 234 °C. In series [1], the IC50 is above 1 µM.

Turning to `COc1cc2c(Oc3ccc(NS(=O)(=O)c4ccccc4OC(F)(F)F)c(C)c3)ccnc2cc1OCCN1CCOCC1` [Example D08, N-{4-[6-Methoxy-7-(2-morpholin-4-yl-ethoxy)-quinolin-4-yloxy]-2-methyl-phenyl}-2-trifluoromethoxy-benzenesulfonamide], the melting point lay within 186 to 188 °C. Further, the IC50 in series [1] amounted to 2.5 µM.

For the molecule `COc1cccc(S(=O)(=O)Nc2ccc(Oc3ccnc4cc(OC)c(OC)cc34)cc2F)c1` [Example A27, N-[4-(6,7-Dimethoxy-quinolin-4-yloxy)-2-fluoro-phenyl]-3-methoxy-benzenesulfonamide], the melting point was in the range of 224 to 225 °C. In series [1], the IC50 stood at 2.54 µM.

`Cc1cc(Oc2ccc(NS(=O)(=O)c3cccc(Oc4ccccc4)c3)c(F)c2)c2cccc(C(F)(F)F)c2n1` [Example C03, N-[2-Fluoro-4-(2-methyl-8-trifluoromethyl-quinolin-4-yloxy)-phenyl]-3-phenoxy-benzenesulfonamide] came in with a melting point of 167 to 168 °C. Moreover, the IC50 in series [1] was above 10 µM.

`COc1cc2c(Oc3ccc(NS(=O)(=O)c4cccc5ccccc45)cc3F)ccnc2cc1OCCCN1CCC(C)CC1` [Example D21, Naphthalene-1-sulfonic acid (3-fluoro-4-{6-methoxy-7-[3-(4-methyl-piperidin-1-yl)-propoxy]-quinolin-4-yloxy}-phenyl)-amide] displayed a melting point of 140 to 143 °C. In addition, in series [1], the half-maximal inhibitory concentration (IC50) stood at 0.347 µM.

`COc1cc2nccc(Oc3ccc(NS(=O)(=O)c4cc(F)ccc4F)cc3OC)c2cc1OC` [Example A139, N-[4-(6,7-Dimethoxy-quinolin-4-yloxy)-3-methoxy-phenyl]-2,5-difluoro-benzenesulfonamide] had a melting point of 222 to 224 °C. The IC50 in series [1] came to 2.2 µM.

The molecule `COc1cc2nccc(Oc3ccc(NS(=O)(=O)c4cccc(-c5ncccn5)c4)cc3OC)c2cc1OC` [Example A143, N-[4-(6,7-Dimethoxy-quinolin-4-yloxy)-3-methoxy-phenyl]-3-pyrimidin-2-yl-benzenesulfonamide] gave a melting point of 135 to 137 °C. Further, in series [1], the IC50 was above 10 µM.

Molecule `COc1cc2c(Oc3ccc(NS(=O)(=O)c4c(F)cccc4F)cc3F)ccnc2cc1OCCCN1CCCC(C)C1` (stereo not drawn) [Example D32, 2,6-Difluoro-N-(3-fluoro-4-{6-methoxy-7-[3-(3-methyl-piperidin-1-yl)-propoxy]-quinolin-4-yloxy}-phenyl)-benzenesulfonamide] had a melting point of 117 to 119 °C. The IC50 in series [1] amounted to 0.042 µM.

In the case of `Cc1cc(Oc2ccc(NS(=O)(=O)c3cccc4ccccc34)cc2)c2cc(F)ccc2n1` [Example B20, Naphthalene-1-sulfonic acid [4-(6-fluoro-2-methyl-quinolin-4-yloxy)-phenyl]-amide], the melting point lay within 223 to 225 °C. Moreover, the IC50 in series [1] is above 10 µM.

Consider `COc1cc2nccc(Oc3ccc(NS(=O)(=O)c4ccc(F)c(F)c4F)c(F)c3)c2cc1OC` [Example A20, N-[4-(6,7-Dimethoxy-quinolin-4-yloxy)-2-fluoro-phenyl]-2,3,4-trifluoro-benzenesulfonamide], for which the melting point fell in the range of 188 to 190 °C. Moreover, the IC50 in series [1] came to 5.05 µM.

The molecule `COc1cc2nccc(Oc3ccc(NS(=O)(=O)c4cc(F)ccc4F)cc3)c2cc1OC` [Example A118, N-[4-(6,7-Dimethoxy-quinolin-4-yloxy)-phenyl]-2,5-difluoro-benzenesulfonamide] had a melting point of 260 to 263 °C. Besides, the concentration for half-maximal inhibition (IC50) in series [1] was 0.54 µM.

`COc1cc2nccc(Oc3ccc(NS(=O)(=O)c4ccc(-c5ccccc5)cc4)c(F)c3)c2cc1OC` [Example A136, Biphenyl-4-sulfonic acid [4-(6,7-dimethoxy-quinolin-4-yloxy)-2-fluoro-phenyl]-amide] registered a melting point of 199 to 201 °C. In addition, in series [1], the IC50 is above 10 µM.

`COc1cc2nccc(Oc3ccc(NS(=O)(=O)c4ccc(C)c(F)c4)c(F)c3)c2cc1OC` [Example A6, N-[4-(6,7-Dimethoxy-quinolin-4-yloxy)-2-fluoro-phenyl]-3-fluoro-4-methyl-benzenesulfonamide] gave a melting point of 211 to 212 °C. In addition, the IC50 in series [1] is 4.3 µM.

Turning to `COc1cc2nccc(Oc3ccc(NS(=O)(=O)c4cccc(Br)c4)c(F)c3)c2cc1OC` [Example A24, 3-Bromo-N-[4-(6,7-dimethoxy-quinolin-4-yloxy)-2-fluoro-phenyl]-benzenesulfonamide], the melting point is 255 to 257 °C. For the same molecule, the IC50 in series [1] was 2.4 µM.

Consider `COc1c(Cl)cc(Cl)cc1S(=O)(=O)Nc1ccc(Oc2cc(C)nc3ccc(F)cc23)cc1` [Example B11, 3,5-Dichloro-N-[4-(6-fluoro-2-methyl-quinolin-4-yloxy)-phenyl]-2-methoxy-benzenesulfonamide], for which the melting point lay in the range of 192 to 193 °C. The 50% inhibitory concentration (IC50) in series [1] was below 1 µM.
